Assay results as given in US9815883B2, “Inhibiting peptides derived from TREM-like transcript 1 (TLT-1) and uses thereof” (Institut National de la Sante et de la Recherche Medicale …, priority 2010, dated 2017).

Assays:
male Balb/c mice [1] = assay: Caecal ligation and puncture (CLP) polymicrobial sepsis model; format: in vivo, mouse; conditions: heading only; evaluation without results
Method: Adult male Balb/c mice (20-23 g) were subjected to caecal ligation and puncture under isoflurane anaesthesia and were randomly grouped (n=5-10 per group) to receive a single LR17 (100 μg in 0.2 mL NaCl 0.9%), scrambled-LR17 ([…] in 0.2 mL NaCl 0.9%), or 0.2 mL NaCl 0.9% i.p. injection. After 24 hours, animals were killed under anaesthesia. Results are mean±SD. p values are *p<0.05, **p<0.01, ***p<0.001 compared with control animals.
(A-B) Adult male Balb/c mice (20-23 g) were subjected to caecal ligation and puncture under isoflurane anaesthesia and were randomly grouped (n=25-40 per group) to receive a LR17, scrambled-LR17, or 0.2 mL NaCl 0.9% i.p. injection at indicated times. Survival was monitored over 1 wk and analyzed by Log Rank test.
Male Balb/c mice (4-6 weeks) were anesthetized with isoflurane. The cecum was exposed through a 1.0 cm abdominal midline incision and subjected to a ligation of the distal half followed by one puncture with a G21 needle. A small amount of stool was expelled from the puncture to ensure patency. The cecum was replaced into the peritoneal cavity and the abdominal incision closed in two layers. After surgery, all mice were injected s.c. with 0.5 mL of 0.9% NaCl solution for fluid resuscitation. The animals were randomly grouped and treated LR17 or LR17-scrambled as control in 250 μL 0.9% NaCl solution and administered i.p. In order to determine the effect of various doses of LR17 at different times, mice were treated with 50, 100 or 200 μg of LR17 at H1 after surgery, or with 3 injections of 100 μg at 2, 6 and 24 hours or with 100 μg in one injection at 24 hours after CLP and then monitored for survival. Five additional animals per group were killed under anaesthesia at 24 h after CLP for the determination of bacterial count and cytokines levels. Peritoneal lavage fluid was obtained using 2 mL RPMI 1640 (EuroBio), and blood was collected by cardiac puncture. Concentrations of plasma cytokines were determined by ELISA (R&Dsystems). For the assessment of bacterial counts, blood and crushed spleen were plated in serial log dilutions on tryptic soy supplemented with 5% sheep blood agar plates. After plating, tryptic soy agar plates were incubated at 37° C. aerobically for 24 h and anaerobically for 48 h. Results are expressed as CFU per ml of blood or per gram of spleen.

TREM-1 ligand (agonist) = assay: Immunoblot revealed by mouse anti-TREM-1 mAb (TREM-1 agonist); format: binding; conditions: FIG. 1A
Excerpt: To determine whether sTLT-1 may specifically bind to the TREM-1 ligand and thus interfere with the TREM-1/TREM-1 ligand interaction, we used a specific TREM-1 agonist known to bind and activate TREM-1, mimicking TREM-1 engagement by its ligand.

male Balb/c mice [2] = assay: Caecal ligation and puncture (CLP) polymicrobial sepsis model; format: in vivo, mouse; conditions: LR12 in septic mice
[3] = tested on: TREM-1 ligand expressed on resting or thrombin-activated human platelets; assay: Flow cytometry binding of FITC-labelled peptides to human platelets; conditions: competition with unlabelled substance
Method: (B) Flow cytometry analysis of FITC-labelled LR17 (1 or 5 μg/mL) binding to TREM-1 ligand expressed on resting or thrombin-activated (5 UI/mL) human platelets is reversed by co-incubation with unlabelled LR17, sTLT-1 or LP17, a TREM-1 derived peptide.
Acid Citrate Dextrose blood samples were centrifuged (100 g, 10 min) to obtain Platelet-Rich Plasma. PRP was then centrifuged (550 g, 10 min) over a 36% (wt/vol) BSA gradient and platelets collected from the interphase before being washed in Tyrode's salts buffer (Sigma-Aldrich) supplemented with 5 mM EGTA. For activation, platelets were incubated for 30 minutes with 5 U/mL thrombin (Sigma-Aldrich) or 1 μg/mL E. Coli LPS (0111:B4, Sigma-Aldrich) at 37° C. and subsequently fixed with 2% (wt/vol) paraphormaldehyde (PFA, Sigma-Aldrich). Residual PFA was removed by two additional washing steps in Tyrode buffer. Activation was assessed by anti-CD62P (Beckman Coulter).
Isolated cells (neutrophils, monocytes or platelets) were blocked for aspecific binding with 10% human Ig (Sigma-Aldrich) for 1 hour on ice. Cells were incubated with recombinant soluble FITC-labelled TLT-1-peptides, FITC-labelled LP17 (or corresponding FITC-labelled scrambled peptides), PE-labelled anti-TREM-1 mAb (R&Dsystems), CD62P-FITC, CD66b-PE, CD45-PE, CD14-FITC (all from Beckman Coulter)

human neutrophils = assay: Neutrophil phagocytosis and oxidative burst (Phagotest, Bursttest); format: cell-based
Method: Data (mean±SD) are representative of 6 different experiments.
The quantitative determination of neutrophil phagocytosis and oxidative burst was performed by flow cytometry using the Phagotest and the Bursttest (Orpegen Pharma, Heidelberg, Germany) following the manufacturers' recommendations. A FITC-labelled opsonized E. coli was used to determine the general phagocytic activity (ingestion of one or more bacteria per cell) and the individual cellular phagocytic activity (number of bacteria per cell). For evaluation of oxidative burst activity, unlabeled opsonized E. coli, fMLP, PMA LPS and activated- or non-activated-platelets (30:1) were used as stimulants and DCFDA as a fluoregenic substrate (Invitrogen) accordingly with manufacturers' instructions.

## EDAGEY (listed as Homo sapiens) [LR6-2, 6 amino-acids derived from LR17]
Male Balb/c mice [1]
  protection against polymicrobial sepsis: Protect Mice Against Polymicrobial Sepsis

## GAEREVCMDEYGALQDG (listed as Homo sapiens) [LR17-scrambled, control peptide, reference compound]
TREM-1 ligand (agonist)
  binding to the TREM-1 ligand (TREM-1 agonist, anti-TREM-1 mAb): not

## GEYGCM (listed as Homo sapiens) [LR6-3, 6 amino-acids derived from LR17]
Male Balb/c mice [1]
  protection against polymicrobial sepsis: Protect Mice Against Polymicrobial Sepsis

## LQEEDA (listed as Homo sapiens) [LR6-1, 6 amino-acids derived from LR17]
Male Balb/c mice [1]
  protection against polymicrobial sepsis: Protect Mice Against Polymicrobial Sepsis

## LQEEDAGEYGCM (listed as Homo sapiens) [LR12, N-terminal 12 amino-acids from LR17]
Male Balb/c mice [2]; FIG. 7c
  coagulation disorders (platelet count): significant protection
Male Balb/c mice [2]; FIG. 7g
  survival rate: improved survival rate
Male Balb/c mice [2]; FIG. 7d
  organ dysfunction (lung histopathology): significant protection
Male Balb/c mice [2]; FIGS. 7a and b
  systemic, broncho-alveolar and organ inflammation: significant protection

B1: sTLT-1: soluble TLT-1 (TREM-like transcript 1), recombinant (protein)
chain: QGIVGSLPEVLQAPVGSSILVQCHYRLQDVKAQKVWCRFLPEGCQPLVSSAVDRRAPAGRRTFLTDLGGGLLQVEMVTLQEEDAGEYGCMVDGARGPQILHRVSLNILPPEEEEETHKIGSLAENAFSDPAGSANPLEPSQDEKSIP
TREM-1 ligand (agonist)
  binding to the TREM-1 ligand (TREM-1 agonist, anti-TREM-1 mAb): able to bind the TREM-1 ligand
[3]
  effect of co-incubation on FITC-labelled LP17 binding to platelets: decreased
  effect of co-incubation on FITC-labelled LR17 binding to platelets: reversed
Human neutrophils; E. coli
  neutrophils' phagocytic properties: did not alter
Human neutrophils; not shown
  PMA- or fMLP-induced oxidative burst: no action
